Like-named read-outs stand apart in the source and are kept apart here.
Columns and labels:
Format in all cases: biochemical
[1] = target: CDK2/Cyclin-A kinase complex (Homo sapiens, UniProt P24941); assay: CDK2 IMAP fluorescence polarization assay
Procedure, shortened: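 Fluorescence polarization (IMAP) using purified active CDK2/Cyclin-A complex with a TAMRA-tagged Histone H1-derived peptide substrate; phosphorylated peptide bound by a metal-containing reagent raises polarization. Inhibition read as reduced fluorescence polarization signal.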

[2] = target: CDK4/Cyclin-D1 kinase complex (Homo sapiens, UniProt P11802); assay: CDK4 ELISA based assay, Rb Ser780 phosphorylation
Sequence of CDK4/Cyclin-D1 kinase complex (P11802 whole entry): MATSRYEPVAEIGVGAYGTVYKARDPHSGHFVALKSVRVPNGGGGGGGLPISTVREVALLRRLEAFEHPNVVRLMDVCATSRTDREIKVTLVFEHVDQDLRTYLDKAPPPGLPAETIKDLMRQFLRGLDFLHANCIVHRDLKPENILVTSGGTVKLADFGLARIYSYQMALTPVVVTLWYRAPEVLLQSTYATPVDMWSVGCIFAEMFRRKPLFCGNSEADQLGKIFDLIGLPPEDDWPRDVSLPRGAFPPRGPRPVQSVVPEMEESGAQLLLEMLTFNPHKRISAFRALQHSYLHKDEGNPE
Sequence of CDK4/Cyclin-D1 kinase complex (P24385 whole entry partner): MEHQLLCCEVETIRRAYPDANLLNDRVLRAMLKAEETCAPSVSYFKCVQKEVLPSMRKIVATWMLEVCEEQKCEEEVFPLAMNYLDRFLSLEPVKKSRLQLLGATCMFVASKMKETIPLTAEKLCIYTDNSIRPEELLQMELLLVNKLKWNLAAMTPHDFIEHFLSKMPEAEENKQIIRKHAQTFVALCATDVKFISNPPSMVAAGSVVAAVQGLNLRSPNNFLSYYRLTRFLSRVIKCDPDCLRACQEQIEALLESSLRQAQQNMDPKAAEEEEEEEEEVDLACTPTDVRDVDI
Text: The compounds that inhibit the CDK4 kinase activity would inhibit the signal output of the assay.

[3] = target: CDK4 (Homo sapiens, UniProt P11802); assay: CDK4 HTRF assay; settings: Table E; read-out: CDK4 HTRF/IC50 [umol l − 1]
Sequence of CDK4 (P11802 whole entry): as the sequence (P11802 whole entry) above
Sequence of CDK4 (P24385 whole entry partner): as the sequence (P24385 whole entry partner) above

[4] = Table E, read-out: CDK2cyA IMAP/IC50 [umol l − 1]
[5] = Table E, read-out: CDK4 ELISA assay IC50 [umol l−]

| IC50 [1, 4] [µM] | IC50 [2, 5] [µM] | IC50 [3] [µM] | IC50 ([1]; Table C, read-out: CDK2 IC50) [µM] | IC50 ([2]; Table C, read-out: CDK4 IC50) [µM] | SMILES |
| --- | --- | --- | --- | --- | --- |
| > 10 | < 10 | – | – | – | CCC(CC)n1ccc2cnc(Nc3ccc(N4CCN(C)CC4)cn3)nc21 [Example 207] |
| < 10 | < 10 | – | – | – | CCC(CC)n1ccc2cnc(Nc3ccc(N4CCN(C)CC4)c(F)c3)nc21 [Example 208] |
| < 10 | < 10 | – | – | – | CCC(CC)n1ccc2cnc(Nc3ccc(C4CCCNC4)cc3)nc21 (stereo not drawn) [Example 211] |
| < 1 | < 10 | – | – | – | CCC(CC)n1ccc2cnc(Nc3ccc(C(=O)N4CCOCC4)cc3)nc21 [Example 212] |
| < 1 | < 10 | – | – | – | CCC(CC)n1ccc2cnc(Nc3cccc(OCCn4ccnc4)c3)nc21 [Example 213] |
| > 10 | < 10 | – | – | – | CCC(CC)n1ccc2cnc(Nc3ccc(C4CCN(C(C)=O)CC4)cc3)nc21 [Example 214] |
| < 10 | < 10 | – | – | – | CCC(CC)n1ccc2cnc(Nc3ccc(C4CCCN(C(C)=O)C4)cc3)nc21 (stereo not drawn) [Example 216] |
| – | > 10 | > 10 | – | – | CCC(C(=O)O)n1ccc2cnc(Nc3ccc(N4CCN(C(C)=O)CC4)cc3)nc21 (stereo not drawn) [Example 220] |
| – | > 10 | > 10 | – | – | CCCC(C(=O)OCC)n1ccc2cnc(Nc3ccc(N4CCN(C(C)=O)CC4)cc3)nc21 (stereo not drawn) [Example 224] |
| < 10 | < 1 | < 1 | – | – | CC(=O)N1CCN(c2ccc(Nc3ncc4ccn(C5CCCCCC5)c4n3)cc2)CC1 [Example 225] |
| > 10 | > 10 | – | – | – | CN1CCN(c2ccc(Nc3ncc4ccn(C5CCCC5)c4n3)nc2)CC1 [Example 255] |
| < 10 | < 10 | – | – | – | c1cc2cn[nH]c2cc1Nc1ncc2ccn(C3CCCC3)c2n1 [Example 257] |
| > 10 | > 10 | – | – | – | CCC(CC)n1cc(C)c2cnc(Nc3ccc(N4CCN(C(C)=O)CC4)cc3)nc21 [Example 263, 1-(4-{4-[7-(1-Ethyl-propyl)-5-methyl-7H-pyrrolo[2,3-d]pyrimidin-2-ylamino]-phenyl}-piperazin-1-yl)-ethanone] |
| > 10 | > 10 | – | – | – | CCC(CC)n1cc(C)c2cnc(Nc3ccc(N4CCN(C)CC4)cc3)nc21 [Example 264] |
| > 10 | < 10 | – | – | – | Cc1cn(C2CCCCC2)c2nc(Nc3ccc(N4CCN(C)CC4)cc3)ncc12 [Example 269] |
| > 10 | 8 | > 10 | – | – | CC(=O)N1CCN(c2ccc(Nc3ncc4c(C)cn(C5CC5)c4n3)cc2)CC1 [Example 275] |
| > 10 | < 10 | > 10 | – | – | Cc1cn(C2CCCCC2)c2nc(Nc3ccc4[nH]ncc4c3)ncc12 [Example 280] |
| – | > 10 | 10 | – | – | CC(=O)c1cn(C2CCCC2)c2nc(Nc3ccc(N4CCNCC4)cc3)ncc12 [Example 326, 1-[7-cyclopentyl-2-(4-piperazin-1-yl-phenylamino)-7H-pyrrolo[2,3-d]pyrimidin-5-yl]-ethanone] |

| IC50 [1, 4] [µM] | IC50 [2, 5] [µM] | IC50 [3] [µM] | IC50 ([1]; Table C, read-out: CDK2 IC50) [µM] | IC50 ([2]; Table C, read-out: CDK4 IC50) [µM] | SMILES |
| --- | --- | --- | --- | --- | --- |
| < 1 | > 10 | – | – | – | CCC(CC)n1c(C)cc2cnc(Nc3ccc(N4CCNCC4)cc3)nc21 [Example 329, [7-(1-Ethyl-propyl)-6-methyl-7H-pyrrolo[2,3-d]pyrimidin-2-yl]-(4-piperazin-1-yl-phenyl)-amine] |
| < 1 | > 10 | – | – | – | CCC(CC)n1c(C)cc2cnc(Nc3ccc(N4CCN(C(C)=O)CC4)cc3)nc21 [Example 330] |
| < 1 | > 10 | – | – | – | CCC(CC)n1c(C)cc2cnc(Nc3ccc(C(=O)NC4CCCC4)cc3)nc21 [Example 331] |
| 10 | < 10 | 10 | – | – | CC(=O)c1c(C)n(C2CCCC2)c2nc(Nc3ccc(N4CCNCC4)cc3)ncc12 [Example 333, 1-[7-Cyclopentyl-6-methyl-2-(4-piperazin-1-yl-phenylamino)-7H-pyrrolo[2,3-d]pyrimidin-5-yl]-ethanone] |
| > 10 | > 10 | – | – | – | CCOC(OCC)c1cc2cnc(Nc3ccc(N4CCN(C(C)=O)CC4)cc3)nc2n1C(CC)CC [Example 360, 1-(4-{4-[6-Diethoxymethyl-7-(1-ethyl-propyl)-7H-pyrrolo[2,3-d]pyrimidin-2-ylamino]-phenyl}-piperazin-1-yl)-ethanone] |
| < 1 | < 1 | < 1 | – | – | CCC(CC)n1c(C=O)cc2cnc(Nc3ccc(N4CCN(C(C)=O)CC4)cc3)nc21 [Example 361, 2-[4-(4-Acetyl-piperazin-1-yl)-phenylamino]-7-(1-ethyl-propyl)-7H-pyrrolo[2,3-d]pyrimidine-6-carbaldehyde] |
| < 1 | > 10 | – | – | – | CCC(CC)n1c(CO)cc2cnc(Nc3ccc(N4CCN(C(C)=O)CC4)cc3)nc21 [Example 362, 1-(4-{4-[7-(1-Ethyl-propyl)-6-hydroxymethyl-7H-pyrrolo[2,3-d]pyrimidin-2-ylamino]-phenyl}-piperazin-1-yl)-ethanone] |
| < 10 | > 10 | < 1 | – | – | CCC(CC)n1c(C=NOC)cc2cnc(Nc3ccc(N4CCN(C(C)=O)CC4)cc3)nc21 [Example 364] |
| < 1 | < 1 | < 1 | – | – | CCC(CC)n1c(C(=O)O)cc2cnc(Nc3ccc(N4CCN(C(C)=O)CC4)cc3)nc21 [Example 374, 2-[4-(4-Acetyl-piperazin-1-yl)-phenylamino]-7-(1-ethyl-propyl)-7H-pyrrolo[2,3-d]pyrimidine-6-carboxylic acid] |
| < 1 | < 1 | < 1 | – | – | CCC(CC)n1c(C(=O)O)cc2cnc(Nc3ccc(N4CCNCC4)cc3)nc21 [Example 375, 7-(1-Ethyl-propyl)-2-(4-piperazin-1-yl-phenylamino)-7H-pyrrolo[2,3-d]pyrimidine-6-carboxylic acid] |
| > 10 | > 10 | – | – | – | CCC(CC)n1c(COC)cc2cnc(Nc3ccc(N4CCN(C(C)=O)CC4)cc3)nc21 [Example 379] |
| – | > 10 | > 10 | – | – | CCC(CC)n1c(COC)cc2cnc(Nc3ccc(N4CCN(C(=O)OC(C)(C)C)CC4)cc3)nc21 [Example 381] |
| < 10 | > 10 | < 1 | – | – | CCC(CC)n1c(COC)cc2cnc(Nc3ccc(N4CCNCC4)cc3)nc21 [Example 382] |
| < 1 | < 1 | < 1 | – | – | CC(=O)c1c(C)c2cnc(Nc3ccc(N4CCNCC4)cc3)nc2n1C1CCCC1 [Example 383] |
| 10 | < 1 | < 1 | – | – | CC(=O)c1c(C)c2cnc(Nc3ccc(N4CCNCC4)cn3)nc2n1C1CCCC1 [Example 387] |
| – | > 10 | > 10 | – | – | CC(C)(C)OC(=O)N1CCN(c2ccc(Nc3ncc4ccn(C5CCCC5)c4n3)cc2)CC1 [Example 427] |
| < 1 | < 1 | < 1 | – | – | Cc1cc2cnc(Nc3ccc(N4CCNCC4)cc3)nc2n1C1CCCC1 [Example 430] |
| – | – | – | < 10 | < 10 | CCC(CC)N1C(=O)C(C)(C)c2cnc(Nc3ccc(N4CCN(C)CC4)cc3)nc21 [drawing 155] |
